Results on 24 molecules are retold here after US12297223B2, “Compounds” (GLAXOSMITHKLINE INTELLECTUAL PROPERTY DEVELOPMENT LIMITED, priority 2019, dated 2025).

The nature of data set [1]: Rat pharmacokinetics after IV infusion and oral dose (AUC oral, % F, Ue % PO). It is filed as in vivo, Male Wistar Han rats. Conditions: for DNAUC oral h*uM: PO 5 mg/kg, dose normalized AUC in blood, n = 3; for bioavailability: male, Wistar Han, whole blood, oral bioavailability, PO 5 mg/kg vs IV infusion 1 mg/kg; for Ue% po: percentage of oral dose eliminated unchanged in urine (or estimate from iv urine fraction times oral bioavailability). The source says:
General Assays for Obtaining AUC Oral h*μm, % F, and Ue % PO Values
Male Wistar Han rats were purchased from Vital River Laboratory Animal Technology Co. Ltd (Beijing, China). The animals were approx. 6-8 weeks old with body weights of 200-300 g on the dosing date. The animals were housed in a 12-hour light/12-hour dark cycle environment and had free access to food and water. All animals were fed prior to dosing. Studies were approved by the Pharmaron Institutional Animal Care and Use Committee (IACUC).
Test article was administered as an intravenous infusion for 1 hour (1 mg/kg) at 5 mL/kg/h. After 48 h, animals received a single oral dose (5 mg/kg, free form) at a dose volume of 10 mL/kg, respectively. Blood samples were collected at various time points after IV infusion and PO administrations. Urine samples were collected at various time points after IV infusion and PO administrations (for some compounds).
Test article was dissolved in DMSO with vortexing and sonification to obtain a stock solution. An aliquot of the stock solution was mixed with 10% HP-β-CD in saline with vortexing to obtain a solution with concentration at 0.2 mg/mL of test article.
Test article was added into 1% Methyl Cellulose with vortexing and sonication to obtain a homogeneous suspension with concentration at 0.5 mg/mL of test article.
For IV infusion (1 mg/kg) administration, blood samples were collected from each animal at 0, 0.25, 0.5, 0.75, 1, 1.08, 1.25, 1.5, 1.75, 2, 3, 5, 8, 12, 24 hour post-dose.
For PO (5 mg/kg) administration, blood samples were collected from each animal at 0, 0.25, 0.5, 1, 1.5, 2, 3, 4, 6, 8, 12, 24 hour post-dose.
Blood samples (50 μL) were collected from each animal via jugular vein. These blood samples were placed into tubes containing K2EDTA. Whole blood was mixed with same volume of water and inverted several times. The blood samples were stored at −75±15° C. until analysis.
For IV infusion (1 mg/kg) administration, urine samples were collected from each animal at 0-4, 4-8, 8-12, 12-24 hour post-dose.
For PO (5 mg/kg) administration, urine samples were collected (for some compounds) from each animal at 0-4, 4-8, 8-12, 12-24 hour post-dose.
55 μL of standards, 55 μL of QC samples or 55 μL of unknown samples (50 μL of blood or urine with 5 μL 50% acetonitrile) were mixed to 200 μL of acetonitrile containing IS (dexamethasone) to precipitate proteins. Then the samples were vortexed for 30 sec. After centrifugation at 4° C., 4700 rpm for 30 min, and 5 μL of the supernatant was injected into the LC-MS/MS system for quantitative analysis.
Test article blood and urine concentrations for each animal following IV infusion at 1 mg/kg and PO at 5 mg/kg were used to calculate pharmacokinetic parameters by employing a non-compartmental analysis (Phoenix™ WinNonlin® 7.0). The linear trapezoidal algorithm was used for AUC calculation. • AUC oral h*μM: Area under the curve (AUC) of drug concentration in blood vs. time (units: h*μM) following oral administration • % F: Oral bioavailability (%) derived from the ratio of dose-normalized AUC following PO and IV administration • Ue % PO: Percentage of oral dose eliminated unchanged in urine or an estimater of that parameter generated from using the percentage of the iv dose eliminated in the urine times the oral bioavailability

In another data set the target is T1, FimH (Escherichia coli, UniProt Q1R2J4).
T1 construct: endogenous in cells; host or cells: E. coli UTI89 (whole bacteria)
Briefly: Hemagglutination inhibition (HAI) assay with UTI89 bacteria and guinea pig red blood cells. Note: ranges in brackets are in nM. It is filed as cell-based. The following applies: HAI titer (EC>90): concentration reducing bacterial agglutination of guinea pig red blood cells by greater than 90%. As for the experimental part: “HAI titer or EC>90” is that concentration of the FimH inhibitor/antagonist which reduces the bacterial agglutination of guinea pig red blood cells by greater than 90%.
The activities of the Examples 1-34 compounds above as FimH antagonists/inhibitors were obtained by the following assay(s), and results are provided in Table 1. Results not provided mean that the activities have not yet been tested.
Hemagglutination Inhibition Assay (HAI)
The hemagglutination inhibition (HAI) assay was performed with UTI89 bacteria and guinea pig red blood cells, as previously described (S. J. Hultgren, W. R. Schwan, A. J. Schaeffer, J. L. Duncan Infect. Immun. 1986, 54, 613-620 and Jarvis, C.; Han, Z.; Kalas, V.; Klein, R.; Pinkner, J. S.; Ford, B.; Binkley, J.; Cusumano, C. K.; Cusumano, Z.; Mydock-McGrane, L.; Hultgren, S. J.; Janetka, J. W., Chem Med Chem 2016, 11, 367-373). Values not listed were not tested.

Some results are limits rather than exact numbers.

The bioavailability is dose-corrected exposure relative to a reference, in per cent.

As to `Cc1cc(-c2cc(C(F)(F)F)ccn2)ccc1[C@@H](C)[C@H]1O[C@H](CO)[C@@H](O)[C@H](O)[C@@H]1O` (single isomer, unassigned) [Example 2], in data set [1], the “DNAUC oral h*uM” value was ““++” (0.5 ≤ x ≤ h · μM)”, the bioavailability is > 30% and the Ue% po result is reported as ““++” (0.5 ≤ x ≤ 5%)”. The HAI result at FimH is on record as ““+++” (50-200)”.
With `Cc1cc(-c2cc(F)cc(F)c2)ccc1[C@@H](C)[C@H]1O[C@H](CO)[C@@H](O)[C@H](O)[C@@H]1O` (single isomer, unassigned) [Example 28], the HAI entry at FimH was ““+++” (50-200)”.
Regarding `C#C[C@@H](c1ccc(-c2cc(F)c(Cl)c(F)c2)cc1C)[C@H]1O[C@H](CO)[C@@H](O)[C@H](O)[C@@H]1O` (single isomer, unassigned) [Example 34], on FimH, the HAI entry is recorded as ““+++” (50-200)”.
`Cc1cc(-c2cnc(C(F)(F)F)cn2)ccc1[C@@H](C)[C@H]1O[C@H](CO)[C@@H](O)[C@H](O)[C@@H]1O` [Example 1, (2R,3S,4R,5S,6R)-2-(Hydroxymethyl)-6-((R)-1-(2-methyl-4-(5-(trifluoromethyl)pyrazin-2-yl)phenyl)ethyl)tetrahydro-2H-pyran-3,4,5-triol]: in data set [1], the “DNAUC oral h*uM” value was ““++” (0.5 ≤ x ≤ h · μM)”, the bioavailability was > 30% and the Ue% po entry is ““+++” (>5%)”. Moreover, the HAI entry on FimH is ““++++” (<50)”.
For the molecule `C[C@H](c1ccc(-c2cnc(C(F)(F)F)cn2)cc1C(F)(F)F)[C@H]1O[C@H](CO)[C@@H](O)[C@H](O)[C@@H]1O` [Example 3, (2R,3S,4R,5S,6R)-2-(hydroxymethyl)-6-((R)-1-(2-(trifluoromethyl)-4-(5-(trifluoromethyl)pyrazin-2-yl)phenyl)ethyl)tetrahydro-2H-pyran-3,4,5-triol], in data set [1], the “DNAUC oral h*uM” value is ““+++” (>1 h · μM)”, the bioavailability is > 30% and the Ue% po entry is ““+++” (>5%)”. Besides, the HAI result at FimH was ““++++” (<50)”.
For `Cc1cc(-c2cncc(C(F)(F)F)c2)ccc1[C@@H](C)[C@H]1O[C@H](CO)[C@@H](O)[C@H](O)[C@@H]1O` [Example 4, (2R,3S,4R,5S,6R)-2-(Hydroxymethyl)-6-((R)-1-(2-methyl-4-(5-(trifluoromethyl)pyridin-3-yl)phenyl)ethyl)tetrahydro-2H-pyran-3,4,5-triol], in data set [1], the “DNAUC oral h*uM” value is recorded as ““++” (0.5 ≤ x ≤ h · μM)”, the bioavailability was > 30% and the Ue% po entry is listed as ““+++” (>5%)”. Besides, on FimH, the HAI entry is recorded as ““++++” (<50)”.
For the molecule `Cc1cc(-c2cc(F)c(Cl)c(F)c2)ccc1[C@@H](CO)[C@H]1O[C@H](CO)[C@@H](O)[C@H](O)[C@@H]1O` [Example 7, (2R,3S,4R,5S,6R)-2-((S)-1-(4′-chloro-3′,5′-difluoro-3-methyl-[1,1′-biphenyl]-4-yl)-2-hydroxyethyl)-6-(hydroxymethyl)tetrahydro-2H-pyran-3,4,5-triol], in data set [1], the “DNAUC oral h*uM” value is given as ““++” (0.5 ≤ x ≤ h · μM)”, the bioavailability lay within 10 to 30% and the Ue% po entry is ““++” (0.5 ≤ x ≤ 5%)”. In addition, the HAI result on FimH was ““++++” (<50)”.
For the molecule `Cc1cc(-c2cc(F)cc(F)c2)ccc1[C@@H](CCO)[C@H]1O[C@H](CO)[C@@H](O)[C@H](O)[C@@H]1O` [Example 11], on FimH, the HAI result is ““+++” (50-200)”.
For `Cc1cc(-c2cc(F)cc(F)c2)ccc1[C@@H](CO)[C@H]1O[C@H](CO)[C@@H](O)[C@H](O)[C@@H]1O` [Example 12], the HAI result on FimH is on record as ““+++” (50-200)”.
On the same count and under the same terms, the entry for `C=C[C@H](c1ccc(-c2cc(F)cc(F)c2)cc1C)[C@H]1O[C@H](CO)[C@@H](O)[C@H](O)[C@@H]1O` [Example 13] is ““++” (201-1000)”.
As for `Cc1cc(-c2cc(F)c(Cl)c(F)c2)ccc1[C@@H](CCO)[C@H]1O[C@H](CO)[C@@H](O)[C@H](O)[C@@H]1O` [Example 14], the “DNAUC oral h*uM” value in data set [1] is on record as ““+” (<0.5 h · μM)”. Moreover, the HAI entry on FimH was ““++++” (<50)”.
For the molecule `C=C[C@H](c1ccc(-c2cc(F)c3nccnc3c2)cc1C)[C@H]1O[C@H](CO)[C@@H](O)[C@H](O)[C@@H]1O` [Example 15], the “DNAUC oral h*uM” value in data set [1] is ““+” (<0.5 h · μM)”. Besides, the HAI entry on FimH was ““++++” (<50)”.
On the same counts, the results for `CC[C@H](c1ccc(-c2ccn(C)c(=O)c2)cc1C)[C@H]1O[C@H](CO)[C@@H](O)[C@H](O)[C@@H]1O` [Example 16] are ““+” (<0.5 h · μM)” and ““+++” (50-200)”.
In the case of `CC[C@H](c1ccc(-c2cc(F)cc(C#N)c2)cc1C)[C@H]1O[C@H](CO)[C@@H](O)[C@H](O)[C@@H]1O` [Example 17], the “DNAUC oral h*uM” value in data set [1] is given as ““+” (<0.5 h · μM)”.
`C=C[C@H](c1ccc(-c2cnc(C3CC3)cn2)cc1C)[C@H]1O[C@H](CO)[C@@H](O)[C@H](O)[C@@H]1O` [Example 19]: in data set [1], the “DNAUC oral h*uM” value is recorded as ““+” (<0.5 h · μM)”. For the same molecule, the HAI entry on FimH was ““++++” (<50)”.
In the case of `C=C[C@H](c1ccc(-c2cncc(C#N)c2)cc1C)[C@H]1O[C@H](CO)[C@@H](O)[C@H](O)[C@@H]1O` [Example 20], the HAI entry on FimH is ““+++” (50-200)”.
`CC[C@H](c1ccc(-c2cncc(C#N)c2)cc1C)[C@H]1O[C@H](CO)[C@@H](O)[C@H](O)[C@@H]1O` [Example 21]: the “DNAUC oral h*uM” value in data set [1] is ““+” (<0.5 h · μM)”. Besides, the HAI entry at FimH is ““+++” (50-200)”.
Regarding `CC[C@H](c1ccc(-c2cnc(C3CC3)cn2)cc1C)[C@H]1O[C@H](CO)[C@@H](O)[C@H](O)[C@@H]1O` [Example 22], on FimH, the HAI result is on record as ““+++” (50-200)”.
Still for that read-out and setting: the entry for `Cc1cc(-c2ccc(C(F)(F)F)cn2)ccc1[C@@H](C)[C@H]1O[C@H](CO)[C@@H](O)[C@H](O)[C@@H]1O` [Example 27] is ““+++” (50-200)”.
With `Cc1cc(-c2cncc(C(F)(F)F)n2)ccc1[C@@H](C)[C@H]1O[C@H](CO)[C@@H](O)[C@H](O)[C@@H]1O` [Example 29], in data set [1], the “DNAUC oral h*uM” value is ““+” (<0.5 h · μM)”, the bioavailability is 10 to 30% and the Ue% po result is reported as ““++” (0.5 ≤ x ≤ 5%)”. For the same molecule, the HAI entry at FimH is ““++++” (<50)”.
Take `Cc1cc(-c2cncc(F)c2)ccc1[C@@H](C)[C@H]1O[C@H](CO)[C@@H](O)[C@H](O)[C@@H]1O` [Example 30]: the HAI result at FimH is given as ““+++” (50-200)”.
For the molecule `Cc1cc(-c2ccc(C(F)(F)F)nn2)ccc1C(C)[C@H]1O[C@H](CO)[C@@H](O)[C@H](O)[C@@H]1O` (some centres unmarked) [Example 31], the HAI entry on FimH is listed as ““++++” (<50)”.
Same read-out and setting: with `C[C@H](c1ccc(-c2cc(C(F)(F)F)ccn2)cc1C(F)(F)F)[C@H]1O[C@H](CO)[C@@H](O)[C@H](O)[C@@H]1O` [Example 32] the entry was ““+++” (50-200)”; with `C[C@H](c1ccc(-c2ccc(C(F)(F)F)cn2)cc1C(F)(F)F)[C@H]1O[C@H](CO)[C@@H](O)[C@H](O)[C@@H]1O` [Example 33], ““+++” (50-200)”.
